Data reported in patent US20260000642A1 (Tay Therapeutics Limited, priority 2022, published 2026).
Where “and” joins values, the source holds several entries; their conditions need not be identical. Identical values can stand only once.

Test system: collagen-induced arthritis in Lewis rats
Assay: Collagen-induced arthritis (CIA) model in rats: body weight, paw volume, clinical scores, clinical observations
[1] = Group 5 (CIA + Example 101 3 mg/kg), Day 13, individual animals, 3 mg/kg
[2] = Group 5 (CIA + Example 101 3 mg/kg), Day 16, individual animals, 3 mg/kg
[3] = Group 5 (CIA + Example 101 3 mg/kg), Day 17, individual animals, 3 mg/kg
[4] = Group 5 (CIA + Example 101 3 mg/kg), Day 20, individual animals, 3 mg/kg
[5] = Group 6 (CIA + Example 101 10 mg/kg), Day 2, individual animals, 10 mg/kg
[6] = Group 6 (CIA + Example 101 10 mg/kg), Day 5, individual animals, 10 mg/kg
[7] = Group 6 (CIA + Example 101 10 mg/kg), Day 6, individual animals, 10 mg/kg
[8] = Group 6 (CIA + Example 101 10 mg/kg), Day 7, individual animals, 10 mg/kg
[9] = Group 6 (CIA + Example 101 10 mg/kg), Day 13, individual animals, 10 mg/kg
[10] = Group 6 (CIA + Example 101 10 mg/kg), Day 15, individual animals, 10 mg/kg
[11] = Group 6 (CIA + Example 101 10 mg/kg), Day 18, individual animals, 10 mg/kg
[12] = Group 6 (CIA + Example 101 10 mg/kg), Day 19, individual animals, 10 mg/kg
[13] = Group 6 (CIA + Example 101 10 mg/kg), Day 20, individual animals, 10 mg/kg
[14] = Group 7 (CIA + Example 101 30 mg/kg), Day 1, individual animals, 30 mg/kg
[15] = Group 7 (CIA + Example 101 30 mg/kg), Day 9, individual animals, 30 mg/kg
[16] = Group 7 (CIA + Example 101 30 mg/kg), Day 11, individual animals, 30 mg/kg
[17] = Group 7 (CIA + Example 101 30 mg/kg), Day 12, individual animals, 30 mg/kg
[18] = Group 7 (CIA + Example 101 30 mg/kg), Day 13, individual animals, 30 mg/kg
[19] = Group 7 (CIA + Example 101 30 mg/kg), Day 15, individual animals, 30 mg/kg
[20] = Group 7 (CIA + Example 101 30 mg/kg), Day 17, individual animals, 30 mg/kg
[21] = Group 7 (CIA + Example 101 30 mg/kg), Day 20, individual animals, 30 mg/kg
[22] = Group 7 (CIA + Example 101 30 mg/kg), Day 21, individual animals, 30 mg/kg

Procedure: Prior to be randomly placed in treatment groups, animals were weighed, and paw volume was measured. Once randomly assigned to treatment groups, on Day 0, animals in groups 2-9 were immunized by subcutaneous injection at the base of the tail. The immunization comprised 100 μL of the CFA+Collagen emulsion (prepared according to the method in Experimental Method A). Animals in group one received no immunization. Seven days after the first injection, animals in groups 2-9 received a booster immunization comprising 200 μL of the IFA+Collagen emulsion (prepared according to the method in Experimental Method A).
Starting on Day 0, animals in group 1 and 2 were administered daily doses of the vehicle per os (P.O.) for 21 days.
The twice daily doses for animals in groups 4-9 were 8 hours apart (e.g., the first dose at 8:00 AM and the second dose at 4:00 PM).
Body weight of all animals was recorded daily for the 21-day period. Blind clinical scores on all four limbs were conducted for all animals in the study. Animals were assessed prior to receiving their first dose of the compound or control, and scores for each limb were combined to a total daily score for each animal. Clinical score assessments were performed on Day 0, 6, 12, 13, 14, 15, 18, 19, and 21 (for a total of 9 daily scores).
Paw volume was recorded for each animal on Day 0, 6, 12, 13, 14, 15, 18, 19, and 21 (for a total of 9 measurements). To measure paw volume, animals were gently held with one hand while the hind paw was placed into a plethysmometer with the other hand. Lipid displacement by the paw was recorded and used to represent paw volume.
At the conclusion of the study (end of the 21-day period), animals were euthanized. Euthanasia occurred four hours after animals received their first dose on the morning of Day 21. Hind limbs were collected following euthanasia, with the left limb being used for H&E staining.
All data measured and recorded was analyzed using SPSS 16.0 software. Groups were compared using one-way ANOVA and significance was set at p<0.05.
Arthritis was induced in Lewis rats by immunizing animals with the CFA+Collagen emulsion via subcutaneous injection at the base of the tail on day 0. Seven days after the first immunization, animals received a booster immunization with the IFA+Collagen emulsion via subcutaneous injection at the base of the tail.
Starting on day 0, animals in group 1 and 2 were administered daily doses of the vehicle per os (P.O.) for 21 days. […] The twice daily doses for animals in groups 4-9 were 8 hours apart (e.g., the first dose at 8:00 AM and the second dose at 4:00 PM).

CNC(=O)c1[nH]c(C(=O)NC2CCC2)cc1O[C@@H](C)c1ccccc1 [Example 101, N^5-cyclobutyl-N^2-methyl-3-(1-phenylethoxy)-1H-pyrrole-2,5-dicarboxamide]
Animal body weight [1]: 180 g | Animal body weight percent change [1]: 9.70% | Animal body weight (Group 5 (CIA + Example 101 3 mg/kg), Day 14, individual animals, 3 mg/kg): 180 g | Animal body weight [2]: 150 g and 170 g | Animal body weight percent change [2]: 0.58% | Animal body weight [3]: 170 g | Animal body weight percent change [3]: −4.40% | Animal body weight percent change (Group 5 (CIA + Example 101 3 mg/kg), Day 18, individual animals, 3 mg/kg): −4.40% and 0.00% | Animal body weight (Group 5 (CIA + Example 101 3 mg/kg), Day 19, individual animals, 3 mg/kg): 150 g and 170 g | Animal body weight [4]: 160 g and 170 g | Animal body weight percent change [4]: −4.40% and 0.60% | Animal body weight percent change (Group 5 (CIA + Example 101 3 mg/kg), Day 21, individual animals, 3 mg/kg): 0.60% | Animal body weight percent change (Group 6 (CIA + Example 101 10 mg/kg), Day 0, individual animals): 0.00% | Animal body weight (Group 6 (CIA + Example 101 10 mg/kg), Day 0, individual animals, 10 mg/kg): 170 g and 160 g | Animal body weight percent change (Group 6 (CIA + Example 101 10 mg/kg), Day 1, individual animals, 10 mg/kg): 0.00% and 0.64% and 5.00% | Animal body weight [5]: 160 g | Animal body weight percent change [5]: 0.62% | Animal body weight percent change (Group 6 (CIA + Example 101 10 mg/kg), Day 3, individual animals, 10 mg/kg): 0.59% | Animal body weight percent change (Group 6 (CIA + Example 101 10 mg/kg), Day 4, individual animals, 10 mg/kg): 0.58% and 0.59% and 3.70% and −0.61% and 7.50% | Animal body weight [6]: 170 g and 160 g | Animal body weight percent change [6]: −0.62% | Animal body weight [7]: 170 g | Animal body weight percent change [7]: −1.76% and 10.00% | Animal body weight [8]: 180 g | Animal body weight percent change [8]: −0.61% | Animal body weight (Group 6 (CIA + Example 101 10 mg/kg), Day 8, individual animals, 10 mg/kg): 180 g | Animal body weight percent change (Group 6 (CIA + Example 101 10 mg/kg), Day 9, individual animals, 10 mg/kg): 3.70% | Animal body weight percent change (Group 6 (CIA + Example 101 10 mg/kg), Day 10, individual animals, 10 mg/kg): 0.00% | Animal body weight percent change (Group 6 (CIA + Example 101 10 mg/kg), Day 11, individual animals, 10 mg/kg): −0.59% and 0.62% | Animal body weight [9]: 150 g and 160 g | Animal body weight percent change [9]: 0.62% and −0.62% | Animal body weight [10]: 170 g | Animal body weight percent change [10]: −0.62% | Animal body weight percent change (Group 6 (CIA + Example 101 10 mg/kg), Day 16, individual animals, 10 mg/kg): 0.00% and −0.62% | Animal body weight percent change (Group 6 (CIA + Example 101 10 mg/kg), Day 17, individual animals, 10 mg/kg): 0.62% and 20.00% | Animal body weight [11]: 160 g | Animal body weight percent change [11]: 0.00% | Animal body weight [12]: 170 g and 160 g (2×) | Animal body weight percent change [12]: −0.58% | Animal body weight [13]: 170 g | Animal body weight percent change [13]: −0.62% and −0.61% | Animal body weight percent change (Group 6 (CIA + Example 101 10 mg/kg), Day 21, individual animals, 10 mg/kg): −0.62% | Animal body weight percent change (Group 7 (CIA + Example 101 30 mg/kg), Day 0, individual animals): 0.00% | Animal body weight [14]: 160 g and 170 g | Animal body weight percent change [14]: −0.61% and 1.20% | Animal body weight (Group 7 (CIA + Example 101 30 mg/kg), Day 2, individual animals, 30 mg/kg): 170 g | Animal body weight (Group 7 (CIA + Example 101 30 mg/kg), Day 3, individual animals, 30 mg/kg): 160 g | Animal body weight (Group 7 (CIA + Example 101 30 mg/kg), Day 4, individual animals, 30 mg/kg): 160 g | Animal body weight percent change (Group 7 (CIA + Example 101 30 mg/kg), Day 5, individual animals, 30 mg/kg): 0.00% and 0.61% | Animal body weight percent change (Group 7 (CIA + Example 101 30 mg/kg), Day 7, individual animals, 30 mg/kg): 0.61% | Animal body weight percent change (Group 7 (CIA + Example 101 30 mg/kg), Day 8, individual animals, 30 mg/kg): 7.10% and −0.61% (2×) and −0.60% | Animal body weight [15]: 170 g | Animal body weight percent change [15]: −0.58% | Animal body weight percent change (Group 7 (CIA + Example 101 30 mg/kg), Day 10, individual animals, 30 mg/kg): −0.58% and 0.00% (2×) | Animal body weight [16]: 170 g | Animal body weight percent change [16]: 0.61% | Animal body weight [17]: 170 g and 160 g | Animal body weight percent change [17]: 1.20% | Animal body weight [18]: 170 g and 160 g | Animal body weight percent change [18]: −0.61% and 1.30% | Animal body weight percent change (Group 7 (CIA + Example 101 30 mg/kg), Day 14, individual animals, 30 mg/kg): 2.60% | Animal body weight [19]: 170 g and 160 g | Animal body weight percent change [19]: 0.00% (2×) and 3.90% | Animal body weight percent change (Group 7 (CIA + Example 101 30 mg/kg), Day 16, individual animals, 30 mg/kg): 0.65% | Animal body weight [20]: 170 g | Animal body weight percent change [20]: 1.30% | Animal body weight percent change (Group 7 (CIA + Example 101 30 mg/kg), Day 18, individual animals, 30 mg/kg): −0.58% and −1.30% | Animal body weight percent change (Group 7 (CIA + Example 101 30 mg/kg), Day 19, individual animals, 30 mg/kg): −1.20% | Animal body weight [21]: 160 g | Animal body weight percent change [21]: 6.10% | Animal body weight [22]: 150 g | Animal body weight percent change [22]: 6.10% and −2.60%
